IC50 data for 18 compounds are collected here from patent publication US20260226068A1, “IMIDAZOTRIAZINE IL-17A MODULATORS AND USES THEREOF” (DICE ALPHA, INC., priority 2023, published 2026).

For one test, the target named is T1, IL-17A/F (Homo sapiens, UniProt Q16552+Q96PD4).
T1 construct: purchased R&D Systems
T1 sequence (Q16552 24-155): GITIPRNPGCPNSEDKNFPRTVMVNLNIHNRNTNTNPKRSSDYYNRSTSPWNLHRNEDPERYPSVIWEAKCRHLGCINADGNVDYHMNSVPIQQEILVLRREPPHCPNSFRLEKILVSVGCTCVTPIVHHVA
T1 sequence (Q96PD4 31-163): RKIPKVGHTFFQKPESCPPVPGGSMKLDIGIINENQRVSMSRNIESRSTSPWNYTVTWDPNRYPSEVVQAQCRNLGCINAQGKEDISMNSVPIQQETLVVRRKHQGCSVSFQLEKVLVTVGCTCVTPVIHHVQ
Briefly: IL-17A/F HEK-Blue cell assay (SEAP reporter). It counts as cell-based. Particulars: HEK-Blue IL-17A reporter cells, IL17A/F 5 ng/mL, 20 hours, SEAP read at A630; read-out: HEK-Blue IL17AF (IC50 for IL-17A/F inhibition).

A further test concerns the target T2, IL-17A/A (Homo sapiens, UniProt Q16552).
T2 construct: purchased Genscript Z03228
T2 sequence (Q16552 24-155): T1 sequence (Q16552 24-155)
Description: IL-17A/A HEK-Blue cell assay (SEAP reporter). The test is classed as cell-based. Particulars: HEK-Blue IL-17A reporter cells, IL17A/A 5 ng/mL, 20 hours, SEAP read at A630; read-out: HEK-Blue IL17AA (IC50 for IL-17A/A inhibition).

pIC50: −log10 of the molar value.

As for `Cc1nonc1C(=O)N[C@H](c1cn2nc(C[C@H]3C[C@@H](C(F)(F)F)CNC3=O)c(C3CCOCC3)nc2n1)C1CCCCC1` [Compound 313, N—((S)-cyclohexyl(2-(((3R,5R)-2-oxo-5-(trifluoromethyl)piperidin-3-yl)methyl)-3-(tetrahydro-2H-pyran-4-yl)imidazo[1,2-b][1,2,4]triazin-6-yl)methyl)-4-methyl-1,2,5-oxadiazole-3-carboxamide], the figures for the pIC50 at IL-17A/F and on IL-17A/A were below 6.00 and above 7.00, respectively.

Regarding `Cc1nonc1C(=O)N[C@H](c1cn2nc(C[C@H]3C[C@@H](C(F)(F)F)CNC3=O)c(C3CCOCC3)nc2n1)C1CC2(C1)CC(F)(F)C2` [Compound 314, N—((S)-(6,6-difluorospiro[3.3]heptan-2-yl)(2-(((3R,5R)-2-oxo-5-(trifluoromethyl)piperidin-3-yl)methyl)-3-(tetrahydro-2H-pyran-4-yl)imidazo[1,2-b][1,2,4]triazin-6-yl)methyl)-4-methyl-1,2,5-oxadiazole-3-carboxamide], the pIC50 on IL-17A/F is below 6.00; on IL-17A/A it was above 7.00.

With `CCc1nonc1C(=O)N[C@H](c1cn2nc(C[C@H]3C[C@@H](C(F)(F)F)CNC3=O)c(C3CCOCC3)nc2n1)C1CC2(C1)CC(F)(F)C2` [Compound 315, N—((S)-(6,6-difluorospiro[3.3]heptan-2-yl)(2-(((3R,5R)-2-oxo-5-(trifluoromethyl)piperidin-3-yl)methyl)-3-(tetrahydro-2H-pyran-4-yl)imidazo[1,2-b][1,2,4]triazin-6-yl)methyl)-4-ethyl-1,2,5-oxadiazole-3-carboxamide], the pIC50 at IL-17A/F is below 6.00; on IL-17A/A it was above 7.00.

Turning to `Cc1nonc1C(=O)N[C@H](c1cn2nc(C[C@H]3C[C@@H](C(F)(F)F)CNC3=O)c(C3CCOCC3)nc2n1)[C@H]1C[C@H]2C[C@H]2C1` [Compound 316, N—((S)-((1R,3r,5S)-bicyclo[3.1.0]hexan-3-yl)(2-(((3R,5R)-2-oxo-5-(trifluoromethyl)piperidin-3-yl)methyl)-3-(tetrahydro-2H-pyran-4-yl)imidazo[1,2-b][1,2,4]triazin-6-yl)methyl)-4-methyl-1,2,5-oxadiazole-3-carboxamide], the pIC50 at IL-17A/F is below 6.00; on IL-17A/A, 6.00 to 7.00.

Regarding `CCc1nonc1C(=O)N[C@H](c1cn2nc(C[C@H]3C[C@@H](C(F)(F)F)CNC3=O)c(C3CCOCC3)nc2n1)[C@H]1C[C@H]2C[C@H]2C1` [Compound 317, N—((S)-((1R,3r,5S)-bicyclo[3.1.0]hexan-3-yl)(2-(((3R,5R)-2-oxo-5-(trifluoromethyl)piperidin-3-yl)methyl)-3-(tetrahydro-2H-pyran-4-yl)imidazo[1,2-b][1,2,4]triazin-6-yl)methyl)-4-ethyl-1,2,5-oxadiazole-3-carboxamide], the pIC50 on IL-17A/F is below 6.00; at IL-17A/A, 6.00 to 7.00.

For `Cc1nonc1C(=O)N[C@H](c1cn2nc(C[C@H]3C[C@@H](C(F)(F)F)CNC3=O)c(C3CCOCC3)nc2n1)[C@H]1C[C@H](C2CC2)C1` [Compound 318, N—((S)-((1r,3S)-3-cyclopropylcyclobutyl)(2-(((3R,5R)-2-oxo-5-(trifluoromethyl)piperidin-3-yl)methyl)-3-(tetrahydro-2H-pyran-4-yl)imidazo[1,2-b][1,2,4]triazin-6-yl)methyl)-4-methyl-1,2,5-oxadiazole-3-carboxamide], the pIC50 at IL-17A/F is below 6.00; at IL-17A/A, above 7.00.

As to `CCc1nonc1C(=O)N[C@H](c1cn2nc(C[C@H]3C[C@@H](C(F)(F)F)CNC3=O)c(C3CCOCC3)nc2n1)[C@H]1C[C@H](C2CC2)C1` [Compound 319, N—((S)-((1r,3S)-3-cyclopropylcyclobutyl)(2-(((3R,5R)-2-oxo-5-(trifluoromethyl)piperidin-3-yl)methyl)-3-(tetrahydro-2H-pyran-4-yl)imidazo[1,2-b][1,2,4]triazin-6-yl)methyl)-4-ethyl-1,2,5-oxadiazole-3-carboxamide], the pIC50 at IL-17A/F is below 6.00; at IL-17A/A it was above 7.00.

On to `Cn1nccc1C(=O)N[C@H](c1cn2nc(C[C@H]3C[C@@H](C(F)(F)F)CNC3=O)c(C3CCOCC3)nc2n1)C(C1CC1)C1CC1` [Compound 320, N—((S)-2,2-dicyclopropyl-1-(2-(((3R,5R)-2-oxo-5-(trifluoromethyl)piperidin-3-yl)methyl)-3-(tetrahydro-2H-pyran-4-yl)imidazo[1,2-b][1,2,4]triazin-6-yl)ethyl)-1-methyl-1H-pyrazole-5-carboxamide], for which the pIC50 is 6.00 to 7.00 on IL-17A/F and above 7.00 on IL-17A/A.

In the case of `CCn1nccc1C(=O)N[C@H](c1cn2nc(C[C@H]3CC(F)(F)CNC3=O)c(C3CCOCC3)nc2n1)C(C1CC1)C1CC1` [Compound 323], the pIC50 was below 6.00 on IL-17A/F and above 7.00 at IL-17A/A.

With `CCn1nccc1C(=O)N[C@H](c1cn2nc(C[C@H]3C[C@@H](C(F)(F)F)CNC3=O)c(N3CCOCC3)nc2n1)C1CCCCC1` [Compound 326, N—((S)-cyclohexyl(3-morpholino-2-(((3R,5R)-2-oxo-5-(trifluoromethyl)piperidin-3-yl)methyl)imidazo[1,2-b][1,2,4]triazin-6-yl)methyl)-1-ethyl-1H-pyrazole-5-carboxamide], the pIC50 is 6.00 to 7.00 at IL-17A/F and above 7.00 at IL-17A/A.

For the compound `CCc1nonc1C(=O)N[C@H](c1cn2nc(C[C@H]3C[C@@H](C(F)(F)F)CNC3=O)c(N3CCOCC3)nc2n1)C1CCCCC1` [Compound 327, N—((S)-cyclohexyl(3-morpholino-2-(((3R,5R)-2-oxo-5-(trifluoromethyl)piperidin-3-yl)methyl)imidazo[1,2-b][1,2,4]triazin-6-yl)methyl)-4-ethyl-1,2,5-oxadiazole-3-carboxamide], the figures for the pIC50 at IL-17A/F and at IL-17A/A were below 6.00 and above 7.00, respectively.

For the compound `CCn1nccc1C(=O)N[C@H](c1cn2nc(C[C@@H]3CC(F)(F)CNC3=O)c(C3CCOCC3)nc2n1)C(C1CC1)C1CC1` [Compound 328], the results for the pIC50 at IL-17A/F and at IL-17A/A were 6.00 to 7.00 and above 7.00, respectively.

Take `CCn1nccc1C(=O)N[C@H](c1cn2nc(C[C@H]3C[C@@H](C(F)(F)F)CNC3=O)c(CNCC(F)(F)F)nc2n1)C1CCC(F)(F)CC1` [Compound 331, N—((S)-(4,4-difluorocyclohexyl)(2-(((3R,5R)-2-oxo-5-(trifluoromethyl)piperidin-3-yl)methyl)-3-(((2,2,2-trifluoroethyl)amino)methyl)imidazo[1,2-b][1,2,4]triazin-6-yl)methyl)-1-ethyl-1H-pyrazole-5-carboxamide]: the pIC50 was 6.00 to 7.00 at IL-17A/F and above 7.00 on IL-17A/A.

With `CCn1nccc1C(=O)N[C@H](c1cn2nc(C[C@H]3C[C@@H](C(F)(F)F)CNC3=O)c(CN3CC(F)(F)C3)nc2n1)C1CCC(F)(F)CC1` [Compound 332, N—((S)-(3-((3,3-difluoroazetidin-1-yl)methyl)-2-(((3R,5R)-2-oxo-5-(trifluoromethyl)piperidin-3-yl)methyl)imidazo[1,2-b][1,2,4]triazin-6-yl)(4,4-difluorocyclohexyl)methyl)-1-ethyl-1H-pyrazole-5-carboxamide], the results for the pIC50 on IL-17A/F and on IL-17A/A were below 6.00 and above 7.00, respectively.

Consider `CCn1nccc1C(=O)N[C@H](c1cn2nc(C[C@H]3C[C@@H](C(F)(F)F)CNC3=O)c(CN3CCC(F)(F)C3)nc2n1)C1CCC(F)(F)CC1` [Compound 333, N—((S)-(4,4-difluorocyclohexyl)(3-((3,3-difluoropyrrolidin-1-yl)methyl)-2-(((3R,5R)-2-oxo-5-(trifluoromethyl)piperidin-3-yl)methyl)imidazo[1,2-b][1,2,4]triazin-6-yl)methyl)-1-ethyl-1H-pyrazole-5-carboxamide], for which the figures for the pIC50 at IL-17A/F and at IL-17A/A were below 6.00 and above 7.00, respectively.

On to `CCn1nccc1C(=O)N[C@H](c1cn2nc(C[C@H]3C[C@@H](C(F)(F)F)CNC3=O)c(Cn3ccnc3)nc2n1)C1CCC(F)(F)CC1` [Compound 334, N—((S)-(3-((1H-imidazol-1-yl)methyl)-2-(((3R,5R)-2-oxo-5-(trifluoromethyl)piperidin-3-yl)methyl)imidazo[1,2-b][1,2,4]triazin-6-yl)(4,4-difluorocyclohexyl)methyl)-1-ethyl-1H-pyrazole-5-carboxamide], for which the pIC50 at IL-17A/F was 6.00 to 7.00; on IL-17A/A, above 7.00.

Consider `CCn1nccc1C(=O)N[C@H](c1cn2nc(C[C@H]3C[C@@H](C(F)(F)F)CNC3=O)c(CN(C)CC(F)(F)F)nc2n1)C1CCC(F)(F)CC1` [Compound 335, N—((S)-(4,4-difluorocyclohexyl)(3-((methyl(2,2,2-trifluoroethyl)amino)methyl)-2-(((3R,5R)-2-oxo-5-(trifluoromethyl)piperidin-3-yl)methyl)imidazo[1,2-b][1,2,4]triazin-6-yl)methyl)-1-ethyl-1H-pyrazole-5-carboxamide], for which the pIC50 at IL-17A/F is 6.00 to 7.00; on IL-17A/A, above 7.00.

On to `CCn1nccc1C(=O)N[C@H](c1cn2nc(C[C@H]3C[C@@H](C(F)(F)F)CNC3=O)c(CN3CC(C(F)(F)F)C3)nc2n1)C1CCC(F)(F)CC1` [Compound 336, N—((S)-(4,4-difluorocyclohexyl)(2-(((3R,5R)-2-oxo-5-(trifluoromethyl)piperidin-3-yl)methyl)-3-((3-(trifluoromethyl)azetidin-1-yl)methyl)imidazo[1,2-b][1,2,4]triazin-6-yl)methyl)-1-ethyl-1H-pyrazole-5-carboxamide], for which the results for the pIC50 at IL-17A/F and at IL-17A/A were 6.00 to 7.00 and above 7.00, respectively.
